Test results taken from PubChem BioAssay AID540271 (Broad Institute, 2011).
Where “and” joins values, the source holds several entries; their conditions need not be identical. Equal values may be shown once. Calls of active or inactive are those of the source. The rule behind the calls is not given here.

Test system: S. cerevisiae expressing PfHSP40, growth rescue, plate reader
Assay: Yeast growth rescue from Plasmodium falciparum HSP40 toxicity, dose response confirmatory, plate reader (AID 540271);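 note: yeast growth read after three days of incubation at 30 °C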

Row | SMILES | AC50
1 | O=S(=O)(Nc1ccccc1)c1ccc(Oc2ncc(C(F)(F)F)cc2Cl)cc1 | 6.09 µM
2 | O=C1/C(=C/c2cccs2)SC(=S)N1NS(=O)(=O)c1ccccc1 | 3.9 µM
3 | O=C(Nc1nc(-c2ccccn2)cs1)c1ccc(Br)s1 | 0.584 µM
4 | CCc1cc(C(N)=O)c(NC(=O)c2ccc(OC)cc2)s1 | 1.77 µM
5 | Oc1cccc2ccc(Nc3ccccn3)nc12 | 4.98 µM
6 | Cc1cc(Cl)ccc1C(=O)C1CCCN(C(=O)c2cncs2)C1 (stereo not given) | 4.83 µM
7 | C=C1C(=O)C23CCC4C(C)(C(=O)OC)CCCC4(C)C2CCC1(O)C3 (stereo not given) | 11.6 µM
8 | O=C(Cc1ccccc1F)Nc1nc(-c2ccc(F)c(F)c2)cs1 | 6.72 µM
9 | Cc1c(C(=O)NCCSCc2cccc(C(F)(F)F)c2)cnn1-c1ccc(Cl)cc1 | 6.1 µM
10 | COc1cc(/C=N/O)cc(Br)c1OCc1cccc(Cl)c1 | 5.31 µM
11 | COc1cccc(C(C)=C2SC(=S)NC2=O)c1 | 9.37 µM
12 | CCCOc1ccc2ccccc2c1/C=C1\SC(=O)NC1=O | 5.65 µM
13 | CCCNC(=O)c1ccc2c(=O)c(O)c(-c3ccc(F)cc3)[nH]c2c1 | 6.08 µM
14 | CCC(Oc1ccccc1)C(=O)Nc1ncc([N+](=O)[O-])s1 (stereo not given) | 6.83 µM
15 | O=S(=O)(c1ccc(Cl)cc1)N1CCC2(CC1)OCCN2S(=O)(=O)c1cccs1 | 4.77 µM
16 | COc1cc(NC(=O)CSc2ccc(-c3ccccn3)nn2)cc(OC)c1 | 1.59 µM
17 | CCCCNC(=S)N/N=C1\CCCCc2ccccc21 | 10.3 µM
18 | O=Cc1ccc(O)c2ncccc12 | 0.366 µM
19 | Cc1cccc(NC(=S)NC(C)CCc2ccccc2)c1 (stereo not given) | 7.92 µM
20 | COc1ccc(/C=N/Nc2cc(C)nc(-n3nc(C)cc3C)n2)cc1 | 5.99 µM
21 | CC(C)(C)n1nc(-c2ccc(F)cc2)c2c(N)ncnc21 | 1.47 µM
22 | CCOC(=O)N1C(=O)C2(CCCCC2)N(c2ccccc2Cl)C1=S | 0.084 µM
23 | O=C(NNC(=O)c1cc(Cl)ccc1O)c1cccc(S(=O)(=O)N2CCOCC2)c1 | 5.28 µM
24 | O=C(N/N=C/c1cc(Br)ccc1O)c1ccccc1Cl | 4.83 µM

Row | SMILES | AC50
25 | O=C(Oc1ccc(N(C(=O)c2ccncc2)S(=O)(=O)c2ccc(Cl)cc2)cc1)c1ccncc1 | 5.85 µM
26 | O=C1c2cc(F)ccc2-n2c1nc1ccccc1c2=O | 0.927 µM
27 | O=C(CSc1ccc(-c2ccccn2)nn1)NCc1ccc(F)cc1 | 4.86 µM
28 | CCN(CC)C(=O)CSc1ncnc2sc(-c3ccccc3)cc12 | 8.72 µM
29 | Cc1cc(C(=O)N/N=C/c2cc(Br)cc([N+](=O)[O-])c2O)c2ccccc2n1 | 3.37 µM
30 | CCN(CC)c1ccc(/C=C/c2ccc3ccc(OC)cc3[n+]2CC)cc1 | 5.78 µM
31 | Cc1cccc(Oc2nc(-c3ccccn3)nc3ccccc23)c1 | 6.77 µM
32 | CN(C)c1ccc(C=c2c3ccccc3n3c2cc(-c2ccc(Cl)cc2)[n+]3C)cc1 | 7.4 µM
33 | O=C(c1ccc(-c2ccccc2)cc1)C1CCCN(C(=O)c2cncs2)C1 (stereo not given) | 5.93 µM
34 | CC(C)c1cc(-c2cc(C(=O)NCc3ccccc3)on2)nc(NCC2CC2)n1 | 5.24 µM
35 | O=c1c(O)cccc2cc(O)c(O)c(O)c12 | 3.63 µM
36 | c1ccc(Nc2cccc(Nc3ccccc3)c2)cc1 | 5.81 µM
37 | [O-][n+]1cccc2c(Br)cc(Br)c(O)c21 | 2.69 µM
38 | CCCCNc1c(-c2ccc(-c3ccc(OC)cc3)c(OC)c2)nc2ccccn12 | 5.48 µM
39 | CCCOc1ccc(C(=O)NNC(=S)NC(=O)CC)cc1 | 6.95 µM
40 | Clc1cccc(CON/C=N/c2ncnc3sccc23)c1 | 3.74 µM
41 | CC1Oc2ccccc2C=C1/C=N/Nc1ccc(C(=O)O)cc1 (stereo not given) | 10.1 µM
42 | COc1ccc(-n2nc(C#N)c(Cl)cc2=O)cc1 | 7.48 µM
43 | CNC1=C(N(C(C)=O)c2ccc(Br)cc2)C(=O)c2ccccc2C1=O | 6.77 µM
44 | CCCCCCn1c(=O)c(C(=O)Nc2ncccc2C)c(O)c2ccccc21 | 3.03 µM
45 | CCc1cc(-c2[nH]ncc2-c2ccc([N+](=O)[O-])cc2)c(O)cc1OC | 6.19 µM
46 | O=C(Oc1c(Cl)cc(Cl)c2cccnc12)c1cccs1 | 1.94 µM
47 | C[n+]1c2cc(N)ccc2cc2ccc(N)cc21 | 1.82 µM and 1 µM
48 | CCCCCCSc1ccc(-c2nc3ccccn3c2NCCCC)cc1 | 6.05 µM

Row | SMILES | AC50
49 | COc1cc(OC)c(-c2c3cc(O)c(=O)cc-3oc3cc(O)c(O)cc23)cc1OC | 1.67 µM
50 | CCCCn1c(=O)c(C(=O)NCc2ccncc2)c(O)c2ccccc21 | 4.99 µM
51 | Cc1ccc(NC(=S)Nc2cccc3cnccc23)cc1C | > 12 µM (inactive)
52 | S=C(NCCCc1ccccc1)Nc1ccccc1Cl | 9.44 µM
53 | COc1ccc2c(c1)OC[C@H]1[C@H]2N2C(=O)c3cc(OC)ccc3NC(=O)[C@@]2(C)[C@H]1c1ccccc1 | 4.84 µM
54 | CCC(=O)NC(c1ccco1)c1cc(Cl)c2cccnc2c1O (stereo not given) | 2.99 µM
55 | COc1ccc(-c2csc(NC(=O)c3ccccc3F)c2C(=O)O)cc1 | 3.69 µM
56 | O=c1cnn([C@@H]2O[C@H](CO)[C@@H](O)[C@H]2O)c(=O)[nH]1 | > 12 µM (inactive)
57 | Cc1c(C2(O)CCCCC2)[nH]c2ccc(C(F)(F)F)cc12 | 7.22 µM
58 | COc1cc2cnc(-c3ccccc3)c(C(=O)c3ccc(F)cc3)c2cc1OC | 4.57 µM
59 | Cc1nc2ccc(C(C(F)(F)F)(C(F)(F)F)C(F)(F)F)cc2[nH]1 | 3.2 µM
60 | Nc1nonc1C(=O)NCCN=Cc1cc(Cc2ccccc2)cc(Br)c1O | 0.642 µM
61 | CCc1ccc([C@@H]2CC=C(C(=O)O)[C@H](c3ccc(Cl)cc3)N2S(=O)(=O)c2ccc(C)cc2)cc1 | 5.39 µM
62 | Cc1nn2c(-c3ccncc3)nnc2c2ccccc12 | 7.28 µM
63 | COc1ccc(CNc2ncnc3sccc23)cc1 | 4.38 µM
64 | Cc1cc(Nc2ccccc2)nn1C(=O)c1ccccc1 | 5.94 µM
65 | CC(=O)c1c(C)oc2c1C(=O)c1ccccc1C2=O | 5.09 µM
66 | CCOC(=O)c1cccc2c1-c1ccccc1/C2=N/O | 6.3 µM
67 | Cc1ccc(NS(=O)(=O)c2ccc(N3CCN(c4ccc(O)cc4)CC3)c([N+](=O)[O-])c2)c(C)c1 | 7.43 µM
68 | CCCCCOc1ccc(CSc2n[nH]c(C)n2)cc1 | 3.81 µM
69 | O=C(Nc1ccc(Cl)cc1C(=O)Nc1ccc(Br)cn1)c1ccco1 | 3.64 µM
70 | C=CS(=O)(=O)c1sc(Cl)c(N2CCOCC2)c1[N+](=O)[O-] | 1.91 µM
